In US10947188B2, “Small molecule ferroptosis inducers” (THE TRUSTEES OF COLUMBIA UNIVERSITY IN THE CITY OF NEW YORK, priority 2016, dated 2021):

Tests used:
HT-1080 = test: Modulatory profiling: Alamar Blue viability, lethal compound cotreated with death modulator (EC50, AUC); type: cell-based; parameters: AUC, modulator HT.3MA / AUC, modulator HT.ALLN / AUC HT.ATA / AUC HT.ActD / AUC HT.BHA / AUC HT.BHT / AUC HT.BocD / AUC HT.CHX / AUC HT.Co2+ / AUC HT.DPQ / AUC HT.EGTA / AUC HT.Lmim / AUC HT.NAD+ / AUC HT.Nec-1 / AUC HT.SP600125 / AUC HT.TLCK / AUC HT.U0126: unit not given beside the values; details: for AUC HT.ATA: HT-1080, modulator ATA; for AUC HT.ActD: HT-1080, modulator ActD; for AUC HT.BHA: HT-1080, modulator BHA; for AUC HT.BHT: HT-1080, modulator BHT; for AUC HT.BocD: HT-1080, modulator BocD; for AUC HT.CHX: HT-1080, modulator CHX; for AUC HT.Co2+: HT-1080, modulator Co2+; for AUC HT.CspA: HT-1080, modulator CspA; for AUC HT.DPQ: HT-1080, modulator DPQ; for AUC HT.EGTA: HT-1080, modulator EGTA; for AUC HT.Gd3+: HT-1080, modulator Gd3+; for AUC HT.LNAME: HT-1080, modulator LNAME; for AUC HT.Lmim: HT-1080, modulator Lmim; for AUC HT.NAD+: HT-1080, modulator NAD+; for AUC HT.NMMA: HT-1080, modulator NMMA; for HT.atoc (AUC) / HT.bCarotene (AUC) / HT.deferox (AUC) / HT.digoxin (AUC) / HT.trolox (AUC) / HT.zVAD (AUC) / EC50: HT-1080; for HT.atoc (AUC): modulator atoc; for HT.bCarotene (AUC): modulator bCarotene; for HT.deferox (AUC): modulator deferox; for HT.digoxin (AUC): modulator digoxin; for HT.trolox (AUC): modulator trolox; for HT.zVAD (AUC): modulator zVAD; for EC50: Homo sapiens, HT-1080, 48 h, 48 h
BJeLR = test: as above; type: cell-based, human; parameters: AUC, modulator BJ.Gd3+ / AUC, modulator BJ.LNAME / AUC, modulator BJ.Lmin / AUC, modulator BJ.3MA / AUC, modulator BJ.ALLN / AUC, modulator BJ.Boc D / AUC, modulator BJ.CHX / AUC, modulator BJ.Co2+ / AUC, modulator BJ.Nec-1 / AUC, modulator BJ.Pepstatin / AUC, modulator BJ.TLCK / AUC, modulator BJ.atoc / AUC, modulator BJ.trolox / AUC, modulator BJ.zVAD: unit not given beside the values; details: for AUC, modulator BJ.3MA / AUC, modulator BJ.ALLN / AUC, modulator BJ.Boc D / AUC, modulator BJ.CHX / AUC, modulator BJ.Co2+ / AUC, modulator BJ.DPQ / AUC, modulator BJ.Gd3+ / AUC, modulator BJ.LNAME / AUC, modulator BJ.Lmin/NAD+ / AUC, modulator BJ.Lmin / AUC, modulator BJ.NAD+ / AUC, modulator BJ.NMMA / AUC, modulator BJ.Nec-1 / AUC, modulator BJ.Pepstatin / AUC, modulator BJ.TLCK: BJeLR cells, modulatory profile value (AUC); for AUC, modulator BJ.3MA: lethal compound cotreated with modulator 3MA; for AUC, modulator BJ.ALLN: lethal compound cotreated with modulator ALLN; for AUC, modulator BJ.Boc D: lethal compound cotreated with modulator Boc D; for AUC, modulator BJ.CHX: lethal compound cotreated with modulator CHX; for AUC, modulator BJ.Co2+: lethal compound cotreated with modulator Co2+; for AUC, modulator BJ.DPQ: lethal compound cotreated with modulator DPQ; for AUC, modulator BJ.Gd3+: lethal compound cotreated with modulator Gd3+; for AUC, modulator BJ.LNAME: lethal compound cotreated with modulator LNAME; for AUC, modulator BJ.Lmin/NAD+: lethal compound cotreated with modulator Lmin/NAD+; for AUC, modulator BJ.Lmin: lethal compound cotreated with modulator Lmin; for AUC, modulator BJ.NAD+: lethal compound cotreated with modulator NAD+; for AUC, modulator BJ.NMMA: lethal compound cotreated with modulator NMMA; for AUC, modulator BJ.Nec-1: lethal compound cotreated with modulator Nec-1; for AUC, modulator BJ.Pepstatin: lethal compound cotreated with modulator Pepstatin; for AUC, modulator BJ.TLCK: lethal compound cotreated with modulator TLCK; for EC50: Homo sapiens, BJeLR, 48 h
[1] = Cobalt (II) binding assay in vitro (absorbance spectrum); details: absorbance 300-700 nm
Protocol: For each cluster I compound (CIL13, −52, and −64), prepared two-fold dilution series with DMSO. We added 30 μL per well of either water or 10 μM cobalt (II) chloride solution to each well of a 384-well plate. Dilution series of each compound in DMSO were added by 10 μL per well. After solutions had been mixed by shaking of the plate using a Victor 3 plate reader (PerkinElmer), absorbance was scanned between 300 and 700 nm for each compound. Finally the following Absorbance value for each compound was plotted (see FIG. 9B):
[formula] where Abs is the absorbance at each wavelength. Search of Commercially Available Structural Analogs of CIL41/70.

HT-1080 cells = test: Cell viability assay (Alamar Blue), lethal compounds with or without modulators; type: cell-based; details: HT-1080 cells; cotreatment
Protocol: 1,000 cells per 36 μl were seeded in each well in 384-well plates. Lethal compounds were dissolved, and a twofold, 12-point dilution series was prepared in DMSO. Compound solutions were further diluted with media at 1:25, and 4 μl per well of the diluted solutions was added to cell cultures immediately after cells were seeded. […] When other cell-death-modulating compounds (100 nM sodium selenite, 1 μM cerivastatin, 100 μg/mL mevalonic acid) were used in cotreatments, they were supplemented to cell culture for 24 h before lethal compounds were added to cell culture, after which cells were further incubated for 24 h at 37° C. under 5% CO2. On the day of the viability measurement, we added 10 μl per well of 50% Alamar Blue diluted in media (Life Technologies) and further incubated the cells at 37° C. for 6 h. Fluorescence intensity (excitation/emission: 530/590) was measured with a Victor 3 plate reader (PerkinElmer), and the normalized viability was calculated as VL=(IL−I0)/(IV−I0), where VL, I0, IV, and IL are the normalized viability and the raw fluorescence intensities from the wells containing media, cells treated with a vehicle (negative control), and cells with the lethal compound (L), respectively. When the effect of a chemical modulator (M) on L was calculated, we instead used the equation VL|M=(IM,L−I0)/(IM,V−I0), where VL|M, IM,L and IM,V are the normalized viability, and fluorescence intensity from cells treated with […], respectively. The viability was typically measured in biological triplicate unless otherwise specified. A representative dose-response curve, the mean and standard error of normalized viability from one replicate were plotted. […]

[2] = test system: BJeLR, DRD, BJeHLT, and BJeH; test: Viability of four engineered BJ cell lines (HRAS G12V selectivity); type: cell-based, human; details: 48 h
HT-1080 or BJeLR cells = test: Analysis of ROS generation (H2-DCFDA flow cytometry); type: cell-based
Protocol: Grew 200,000 HT-1080 or BJeLR cells in six-well plates at 37° C. for 16 h. Cells were treated with test compounds, trypsinized, pelleted, and washed once with PBS. For lipophilic or aqueous ROS detection, cells were re-suspended in Hanks' Balanced Salt Solution (HBSS; Life Technologies) containing test compounds as well as C11-BODIPY(581/591) (2 μM) or H2-DCFDA (25 μM), respectively (Life Technologies), and incubated for 10 min at 37° C. Cells were then pelleted, re-suspended in 500 μL HBSS, strained through a 40-μm cell strainer (BD Falcon), and analyzed using a BD Accuri C6 flow cytometer (BD Biosciences). Both dyes were measured in the FL1 channel. Experiments were done in biological triplicates.

[3] = cotreated with antioxidant Trolox
[4] = cotreated with iron-chelator Lmim

C/C(=N\Nc1ncc(Cl)cc1Cl)c1ccccn1 [CIL64]
AUC HT.ATA (HT-1080): 0.1979
AUC HT.ActD (HT-1080): 0.04802
AUC HT.BHA (HT-1080): −0.1469
AUC HT.BHT (HT-1080): −0.3128
AUC HT.BocD (HT-1080): −0.1078
AUC HT.CHX (HT-1080): 0.06685
AUC HT.Co2+ (HT-1080): 0.4161
AUC HT.CspA (HT-1080): 0.08661
AUC HT.DPQ (HT-1080): −0.135
AUC HT.EGTA (HT-1080): 0.1842
AUC HT.Gd3+ (HT-1080): −0.0263
AUC HT.LNAME (HT-1080): <0.2159
AUC HT.Lmim (HT-1080): −0.2705
AUC HT.NAD+ (HT-1080): −0.1971
AUC HT.NMMA (HT-1080): −0.1742
HT.atoc (AUC) (HT-1080): −0.06249
HT.bCarotene (AUC) (HT-1080): 0.1654
HT.deferox (AUC) (HT-1080): 0.127
HT.digoxin (AUC) (HT-1080): 0.0348
HT.trolox (AUC) (HT-1080): −0.08079
HT.zVAD (AUC) (HT-1080): 0.05557
effect of cobalt (II) on lethality (HT-1080; modulatory profiles, CoCl2 supplementation): inhibited by cobalt (II)
AUC, modulator BJ.3MA (BJeLR): 0.02465
AUC, modulator BJ.ALLN (BJeLR): 0.0142
AUC, modulator BJ.Boc D (BJeLR): 0.01108
AUC, modulator BJ.CHX (BJeLR): 0.04712
AUC, modulator BJ.Co2+ (BJeLR): 0.9402
AUC, modulator BJ.DPQ (BJeLR): 0.009397
AUC, modulator BJ.Gd3+ (BJeLR): 0.02721
AUC, modulator BJ.LNAME (BJeLR): 0.03249
AUC, modulator BJ.Lmin/NAD+ (BJeLR): 0.0757
AUC, modulator BJ.Lmin (BJeLR): 0.02777
AUC, modulator BJ.NAD+ (BJeLR): 0.1422
AUC, modulator BJ.NMMA (BJeLR): 0.001966
AUC, modulator BJ.Nec-1 (BJeLR): 0.05533
AUC, modulator BJ.Pepstatin (BJeLR): 0.04262
AUC, modulator BJ.TLCK (BJeLR): 0.06508
binding to cobalt (II) in vitro [1]: bound to cobalt (II) in vitro

N/C(Cc1ccc(Cl)cc1)=N\OC(=O)c1cccc2ccccc12 [CIL70]
AUC HT.ATA (HT-1080): −0.004378
AUC HT.ActD (HT-1080): −0.02914
AUC HT.BHA (HT-1080): 0.1062
AUC HT.BHT (HT-1080): −0.03541
AUC HT.BocD (HT-1080): −0.03004
AUC HT.CHX (HT-1080): −0.02631
AUC HT.Co2+ (HT-1080): 0.01978
AUC HT.CspA (HT-1080): −0.0468
AUC HT.DPQ (HT-1080): 0.02696
AUC HT.EGTA (HT-1080): 0.01851
AUC HT.Gd3+ (HT-1080): −0.01357
AUC HT.LNAME (HT-1080): 0.005993
AUC HT.Lmim (HT-1080): 0.2198
AUC HT.NAD+ (HT-1080): 0.04321
AUC HT.NMMA (HT-1080): −0.005818
HT.atoc (AUC) (HT-1080): 0.2733
HT.bCarotene (AUC) (HT-1080): −0.001707
HT.deferox (AUC) (HT-1080): 0.2561
HT.digoxin (AUC) (HT-1080): −0.1366
HT.trolox (AUC) (HT-1080): 0.1205
HT.zVAD (AUC) (HT-1080): 0.002272
effect of ferroptosis inhibitors (iron chelators and lipophilic antioxidants) on lethality in modulatory profiling (HT-1080; HT-1080 and BJeLR): suppression by canonical ferroptosis inhibitors
EC50 (HT-1080; DMSO): 4.44 µM
EC50 (HT-1080; cotreated with MEK inh U0126): 10.3 µM
EC50 (HT-1080; cotreated with antioxidant Atoc): 32.2 µM
EC50 (HT-1080; cotreated with antioxidant BHA): 13.3 µM
EC50 (HT-1080; cotreated with antioxidant BHT): 6.5 µM
EC50 (HT-1080; [3]): 11.1 µM
EC50 (HT-1080; cotreated with iron-chelator Deferoxamine): 157 µM
EC50 (HT-1080; [4]): 47.8 µM
AUC, modulator BJ.3MA (BJeLR): 0.1014
AUC, modulator BJ.ALLN (BJeLR): −0.07036
AUC, modulator BJ.Boc D (BJeLR): 0.002412
AUC, modulator BJ.CHX (BJeLR): 0.1304
AUC, modulator BJ.Co2+ (BJeLR): −0.0004925
AUC, modulator BJ.DPQ (BJeLR): 0.02973
AUC, modulator BJ.Gd3+ (BJeLR): 0.04884
AUC, modulator BJ.LNAME (BJeLR): −0.006027
AUC, modulator BJ.Lmin/NAD+ (BJeLR): 0.2633
AUC, modulator BJ.Lmin (BJeLR): 0.2062
AUC, modulator BJ.NAD+ (BJeLR): 0.03108
AUC, modulator BJ.NMMA (BJeLR): −0.008547
AUC, modulator BJ.Nec-1 (BJeLR): 0.1293
AUC, modulator BJ.Pepstatin (BJeLR): 0.07715
AUC, modulator BJ.TLCK (BJeLR): 0.06301
EC50 (BJeLR; DMSO): 1.76 µM
EC50 (BJeLR; cotreated with Lmim_NAD): 14.8 µM
EC50 (BJeLR; [3]): 7.1 µM
EC50 (BJeLR; cotreated with antioxidant atoc): 18.6 µM
EC50 (BJeLR; [4]): 13.1 µM
effect of ferroptosis inhibitors (α-tocopherol, deferoxamine) on lethality (HT-1080 cells): strongly suppressed by ferroptosis inhibitors
oncogenic RAS selectivity in the BJ engineered cell line series [2]: did not exhibit oncogenic RAS selectivity
ROS accumulation detected using H2-DCFDA (HT-1080 or BJeLR cells): induced ROS accumulation
